Measured values published in patent publication US9073935B2, “Substituted benzylspiroindolin-2-one analogs as positive allosteric modulators of the muscarinic acetylcholine receptor M1” (VANDERBILT UNIVERSITY, priority 2011, dated 2015).

Target: T1, mAChR M1 (UniProt P11229)
T1 sequence (P11229 1-460): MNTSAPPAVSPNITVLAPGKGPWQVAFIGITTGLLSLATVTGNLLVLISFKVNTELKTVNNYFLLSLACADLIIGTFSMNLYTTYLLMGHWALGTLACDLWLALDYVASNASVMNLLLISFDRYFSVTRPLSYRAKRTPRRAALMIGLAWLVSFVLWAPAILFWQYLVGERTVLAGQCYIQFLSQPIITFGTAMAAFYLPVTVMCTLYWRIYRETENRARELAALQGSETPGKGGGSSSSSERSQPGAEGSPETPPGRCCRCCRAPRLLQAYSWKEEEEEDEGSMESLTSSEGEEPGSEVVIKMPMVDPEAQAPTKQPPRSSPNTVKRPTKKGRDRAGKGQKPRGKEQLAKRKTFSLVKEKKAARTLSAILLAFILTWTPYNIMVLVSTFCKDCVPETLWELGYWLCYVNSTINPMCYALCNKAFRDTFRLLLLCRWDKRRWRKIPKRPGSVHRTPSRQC
Test: mAChR M1 cell-based functional assay (calcium mobilization, potentiation of EC20 acetylcholine response)
Conditions: for Emax: % ACh maximum at 30 μM; for EC50: CHO-K1 cells expressing mAChR M1, increase in EC20 acetylcholine response, >10 μM estimated where no plateau in the curve
Description: Chinese hamster ovary (CHO-K1) cells stably expressing rat (r)M1 were purchased from the American Type Culture Collection and cultured according to their indicated protocol. […] To make stable rM2, hM2, rM3, hM4, and rM4 cell lines for use in calcium mobilization assays, these cells also were stably transfected with a chimeric G-protein (Gqi5) (provided by B. R. Conklin, University of California, San Francisco) using Lipofectamine 2000. rM1, hM1, rM3, hM3, rM5, and hM5 cells were grown in Ham's F-12 medium containing 10% heat-inactivated fetal bovine serum (FBS), 20 mM HEPES, and 50 μg/mL G418 sulfate. rM2-Gqi5, hM2-Gqi5, and hM4-Gqi5 cells were grown in the same medium also containing 500 μg/mL Hygromycin B. Stable rM4-Gqi5 cells were grown in DMEM containing 10% heat-inactivated FBS, 20 mM HEPES, 400 μg/mL G418 sulfate, and 500 μg/mL Hygromycin B.
For high throughput measurement of agonist-evoked increases in intracellular calcium, CHO-K1 cells stably expressing muscarinic receptors were plated in growth medium lacking G418 and hygromycin at 15,000 cells/20 μL/well in Greiner 384-well black-walled, tissue culture (TC)-treated, clear-bottom plates (VWR). Cells were incubated overnight at 37° C. and 5% CO2. […] Compound master plates were formatted in an 11 point CRC format (1:3 dilutions) in 100% DMSO with a starting concentration of 10 mM using the BRAVO liquid handler (Agilent). Test compound CRCs were then transferred to daughter plates ([…]) using the Echo acoustic plate reformatter (Labcyte, Sunnyvale, Calif.) and then diluted into assay buffer (40 μL) to a 2× stock using a Thermo Fisher Combi (Thermo Fisher Scientific, Waltham, Mass.).
Calcium flux was measured using the Functional Drug Screening System (FDSS) 6000 (Hamamatsu Corporation, Tokyo, Japan) as an increase in the fluorescent static ratio. Compounds were applied to cells (20 μL, 2×) using the automated system of the FDSS 6000 at 4 s into the 300 s protocol and the data were collected at 1 Hz. […] Agonist activity was analyzed as a concentration-dependent increase in calcium mobilization upon compound addition. Positive allosteric modulator activity was analyzed as a concentration-dependent increase in the EC20 acetylcholine response. Antagonist activity was analyzed as a concentration-dependent decrease in the EC80 acetylcholine response. Concentration-response curves were generated using a four-parameter logistical equation in XLfit curve fitting software (IDBS, Bridgewater, N.J.) for Excel (Microsoft, Redmond, Wash.) or Prism (GraphPad Software, Inc., San Diego, Calif.).
The calcium mobilization assay was also used to determine “efficacy”. In the context of the assays carried out for the data in Table II, “efficacy” (% ACh at 30 μM) is defined as the maximal response in the calcium flux as determined by the sigmoidal curve fit of the concentration response curve, or in the absence of an acceptable curve fit, the response recorded at 30 μM test compound, stated as a percentage of the response elicited by a concentration of Ach that induces approximately 80% of a maximal (i.e. saturating) ACh response.
Substituted benzylspiroindolin-2-one analogs were synthesized as described above. Activity (EC50 and Emax) was determined in the mAChR M1 cell-based functional assay as described above and the data are shown in Table III. The compound number corresponds to the compound numbers used in Tables I and II.

Compound	Emax [%]	EC50 [µM]
Cn1cc2c(-c3cc(F)c(CN4C(=O)C5(CCN(C(=O)OC(C)(C)C)C5)c5ccccc54)c(F)c3)cccc2n1 (stereo not shown) [Compound B76]	<30	> 10
CN1CCC2(CC1)C(=O)N(Cc1c(F)cc(-c3ccc4nn(C)cc4c3)cc1F)c1ccccc12 [Compound B77]	26	> 10
CN1CCC2(CC1)C(=O)N(Cc1c(F)cc(-c3ccc4c(c3)CC(=O)N4)cc1F)c1ccccc12 [Compound B78]	38	6.6
CN1CCC2(CC1)C(=O)N(Cc1c(F)cc(-c3cccc4nn(C)cc34)cc1F)c1ccccc12 [Compound B79]	<30	> 10
CN1CCCC12C(=O)N(Cc1c(F)cc(-c3cccc4nn(C)cc34)cc1F)c1ccccc12 (stereo not shown) [Compound B80]	<30	> 10
